From the NIST ThermoML archive (doi:10.1021/je901020a)

How the values were obtained:
[1] = xn = mol fraction of the nth substance listed; conditions: 101 kPa, Liquid; for speed of sound: Pulse-echo method
[2] = refractive index (Na D-line) (dimensionless); xn = mol fraction of the nth substance listed; conditions: 101 kPa, Liquid, Standard Abbe refractometry

C1CCCCCCC1 [cyclooctane] + Cc1ccccc1C
Conditions | mass density, [1] [kg/m3] | refractive index, [2] | speed of sound, [1] [m/s]
298.15 K, x1 = 0.0513 | 871.8 | 1.49887 | 1347
298.15 K, x1 = 0.1015 | 868.4 | 1.49595 | 1348
298.15 K, x1 = 0.2 | 862.5 | 1.49039 | 1349
298.15 K, x1 = 0.3067 | 856.9 | 1.48468 | 1351
298.15 K, x1 = 0.4026 | 852.2 | 1.47987 | 1354
298.15 K, x1 = 0.5037 | 847.6 | 1.47508 | 1358
298.15 K, x1 = 0.6262 | 842.6 | 1.46963 | 1364
298.15 K, x1 = 0.7007 | 839.9 | 1.46653 | 1368
298.15 K, x1 = 0.8028 | 836.5 | 1.4626 | 1375
298.15 K, x1 = 0.8953 | 833.9 | 1.45933 | 1381
298.15 K, x1 = 0.9498 | 832.5 | 1.45752 | 1386
298.15 K, x1 = 1 | 831.5 | 1.45598 | 1391
313.15 K, x1 = 0.0508 | 859.7 | 1.49181 | 1289
313.15 K, x1 = 0.0905 | 857.3 | 1.48933 | 1289
313.15 K, x1 = 0.1697 | 852.7 | 1.48503 | 1289
313.15 K, x1 = 0.2967 | 845.9 | 1.47816 | 1291
313.15 K, x1 = 0.3824 | 841.6 | 1.47392 | 1293
313.15 K, x1 = 0.4839 | 836.9 | 1.46911 | 1296
313.15 K, x1 = 0.5878 | 832.4 | 1.46435 | 1300
313.15 K, x1 = 0.6869 | 828.6 | 1.46018 | 1305
313.15 K, x1 = 0.7892 | 825.1 | 1.45617 | 1310
313.15 K, x1 = 0.8891 | 822 | 1.45244 | 1317
313.15 K, x1 = 0.9368 | 820.7 | 1.45072 | 1321
313.15 K, x1 = 1 | 819.2 | 1.44877 | 1326

Cc1ccc(C)cc1 [1,4-dimethylbenzene] + CC1CCCCC1
x2 = 0
Conditions | mass density, [1] [kg/m3] | refractive index, [2] | speed of sound, [1] [m/s]
298.15 K | 856.6 | 1.49312 | 1310
313.15 K | 843.5 | 1.48444 | 1248

CC1CCCCC1 [methylcyclohexane] + Cc1cccc(C)c1
x1 = 1
Conditions | mass density, [1] [kg/m3] | refractive index, [2] | speed of sound, [1] [m/s]
298.15 K | 765 | 1.42062 | 1215
313.15 K | 751.9 | 1.41274 | 1150

C1CCCC1 [cyclopentane] + Cc1cccc(C)c1
Conditions | mass density, [1] [kg/m3] | refractive index, [2] | speed of sound, [1] [m/s]
298.15 K, x1 = 0.0391 | 856.1 | 1.49183 | 1315
298.15 K, x1 = 0.0908 | 851.1 | 1.48818 | 1308
298.15 K, x1 = 0.1894 | 841.2 | 1.48065 | 1296
298.15 K, x1 = 0.2859 | 831.2 | 1.47341 | 1284
298.15 K, x1 = 0.3868 | 820.1 | 1.46504 | 1272
298.15 K, x1 = 0.4808 | 809.2 | 1.45745 | 1260
298.15 K, x1 = 0.6394 | 789.8 | 1.44242 | 1241
298.15 K, x1 = 0.6923 | 782.9 | 1.43668 | 1235
298.15 K, x1 = 0.7909 | 769.7 | 1.42686 | 1224
298.15 K, x1 = 0.8952 | 755 | 1.41504 | 1214
298.15 K, x1 = 0.9514 | 746.9 | 1.40888 | 1208
298.15 K, x1 = 1 | 740 | 1.40292 | 1204
313.15 K, x1 = 0.0431 | 842.9 | 1.48387 | 1253
313.15 K, x1 = 0.0812 | 839.2 | 1.48096 | 1248
313.15 K, x1 = 0.1859 | 828.6 | 1.47303 | 1234
313.15 K, x1 = 0.2864 | 818 | 1.46521 | 1220
313.15 K, x1 = 0.3348 | 812.6 | 1.46128 | 1213
313.15 K, x1 = 0.4741 | 796.4 | 1.44893 | 1194
313.15 K, x1 = 0.5747 | 784.1 | 1.43989 | 1181
313.15 K, x1 = 0.6933 | 768.8 | 1.42834 | 1166
313.15 K, x1 = 0.7932 | 755.2 | 1.4181 | 1153
313.15 K, x1 = 0.8961 | 740.5 | 1.4067 | 1141
313.15 K, x1 = 0.9472 | 733 | 1.40122 | 1135
313.15 K, x1 = 1 | 725 | 1.39456 | 1130

C1CCCCCCC1 [cyclooctane] + Cc1cc(C)cc(C)c1
Conditions | mass density, [1] [kg/m3] | refractive index, [2] | speed of sound, [1] [m/s]
298.15 K, x1 = 0.0496 | 858.9 | 1.49453 | 1338
298.15 K, x1 = 0.1026 | 856.8 | 1.49198 | 1339
298.15 K, x1 = 0.2035 | 852.7 | 1.48725 | 1341
298.15 K, x1 = 0.307 | 848.8 | 1.48253 | 1345
298.15 K, x1 = 0.4062 | 845.2 | 1.47807 | 1349
298.15 K, x1 = 0.5042 | 841.9 | 1.47384 | 1354
298.15 K, x1 = 0.598 | 839 | 1.46995 | 1359
298.15 K, x1 = 0.696 | 836.2 | 1.46606 | 1366
298.15 K, x1 = 0.8308 | 833.3 | 1.46115 | 1376
298.15 K, x1 = 0.8926 | 832.3 | 1.45905 | 1381
298.15 K, x1 = 0.9484 | 831.7 | 1.45738 | 1386
298.15 K, x1 = 1 | 831.5 | 1.45598 | 1391
313.15 K, x1 = 0.0517 | 846.6 | 1.48694 | 1277
313.15 K, x1 = 0.0872 | 845.2 | 1.48532 | 1278
313.15 K, x1 = 0.1842 | 841.3 | 1.48082 | 1280
313.15 K, x1 = 0.2935 | 837.2 | 1.4759 | 1283
313.15 K, x1 = 0.3891 | 833.8 | 1.47166 | 1287
313.15 K, x1 = 0.4882 | 830.4 | 1.46743 | 1291
313.15 K, x1 = 0.5857 | 827.5 | 1.4634 | 1296
313.15 K, x1 = 0.6847 | 824.6 | 1.45952 | 1302
313.15 K, x1 = 0.791 | 822.1 | 1.45559 | 1309
313.15 K, x1 = 0.8911 | 820.3 | 1.45214 | 1317
313.15 K, x1 = 0.939 | 819.7 | 1.45053 | 1321
313.15 K, x1 = 1 | 819.2 | 1.44877 | 1325
